Reference: PubChem BioAssay (NCI)
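Dose response: 5 concentrations. Exposure: 48 h. Format: 96-well plates. Endpoint: linear interpolation; highest concentration if not reached. GI50 is the concentration that inhibits growth by half. TGI: concentration producing complete growth inhibition.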

Columns and labels:
Assay in all cases: inhibition of tumour cell growth, NCI panel, 48 h
786-0 renal = system: 786-0 renal
HL-60(TB) leukemia = system: HL-60(TB) leukemia
UO-31 renal = system: UO-31 renal
NCI/ADR-RES ovarian = system: NCI/ADR-RES ovarian
LOX IMVI melanoma = system: LOX IMVI melanoma
BT-549 breast = system: BT-549 breast
TK-10 renal = system: TK-10 renal
SK-MEL-28 melanoma = system: SK-MEL-28 melanoma
K-562 leukemia = system: K-562 leukemia
SNB-75 CNS = system: SNB-75 CNS

Compound | TGI (786-0 renal) [µM] | TGI (HL-60(TB) leukemia) [µM] | TGI (UO-31 renal) [µM] | TGI (NCI/ADR-RES ovarian) [µM] | TGI (LOX IMVI melanoma) [µM] | TGI (BT-549 breast) [µM] | TGI (TK-10 renal) [µM] | TGI (SK-MEL-28 melanoma) [µM] | TGI (K-562 leukemia) [µM] | GI50 (HL-60(TB) leukemia) [µM] | GI50 (UO-31 renal) [µM] | GI50 (NCI/ADR-RES ovarian) [µM] | GI50 (LOX IMVI melanoma) [µM] | GI50 (SK-MEL-28 melanoma) [µM] | GI50 (K-562 leukemia) [µM] | TGI (SNB-75 CNS) [µM]
CC(C)(C)N(Cc1ccc2c(c1)OCO2)C(=O)/C=C\Sc1ccccc1 | > 100 | > 100 | > 100 | > 100 | > 100 | > 100 | > 100 | > 100 | > 100 |  |  |  |  |  |  | 
Cc1nc2ccccc2c(/C=C/c2ccc(Cl)cc2)c1C(=O)/C=C/c1ccc(Cl)cc1 |  | 4.37 | 2.25 | 6.15 | 2.55 |  |  | 3.12 | > 100 | 1.46 | 1.06 | 2.12 | 1.22 | 1.67 | 1.28 | 
Cc1ccccc1NC(=O)Cc1csc2[n+]1C(=O)/C(=C/c1ccc([N+](=O)[O-])cc1)S2 | > 100 | > 100 | 85.5 | > 100 | > 100 | 38.6 | 56.3 | > 100 |  |  |  |  |  |  |  | 63.1
CCc1ccccc1NNc1cc(=O)[nH]c(=O)[nH]1 | 32.5 | > 100 | 31.1 | > 100 | 29.4 | 41.4 |  | 38 | > 100 |  |  |  |  |  |  | 40.5
CCOC(=O)N(c1ccccc1)N(CC)C(=O)/C(C)=N/Nc1ccc([N+](=O)[O-])cc1 | 33.4 | 35.8 | 29.5 |  |  |  |  | 31.1 | 38.1 |  |  |  |  |  |  | 35.2
CCOC(=O)C1=COC(C)(CCc2ccccc2)CC1=O (stereo unspecified) | > 100 |  | > 100 | > 100 |  | > 100 | > 100 | > 100 | > 100 |  |  |  |  |  |  | > 100
O=c1cnn(CCOCP(=O)(O)O)c(=O)[nH]1 |  |  | > 100 | > 100 | > 100 | > 100 | > 100 | > 100 | > 100 |  |  |  |  |  |  | > 100
COc1cc(N(Cc2ccc3oc(=O)c(-c4ccccc4)nc3c2)Cc2ccc3oc(=O)c(-c4ccccc4)nc3c2)cc(OC)c1OC | > 10 | > 10 | > 10 | > 10 | > 10 |  | > 10 | > 10 | > 10 |  |  |  |  |  |  | > 10
C[C@H]1S[C@H](c2c(Cl)cccc2Cl)N2Cc3ccccc3N=C12 | 23 | > 100 | 26.3 |  | 32.6 | > 100 | 41.9 |  | > 100 |  |  |  |  |  |  | 32.4
CC(=O)Oc1ccc(/C=C/C(=O)O[C@@H](C(=O)O)[C@@H](OC(=O)/C=C/c2ccc(OC(C)=O)c(OC(C)=O)c2)C(=O)O)cc1OC(C)=O | > 100 |  | > 100 | > 100 | > 100 | > 100 | > 100 | > 100 | > 100 |  |  |  |  |  |  | > 100
CCOC(=O)Oc1ccc2c(c1)c(=O)c1c(NCCN(CC)CC)ccc3nnn2c31 | 13 |  | 1.24 | 18.9 | 4.16 | 23.1 | 16.2 | 24.1 | > 36.3 |  |  |  |  |  |  | 
COc1ccc(-n2sc3ncccc3c2=O)cc1 | 32.3 | 41.5 | 33.7 | 59.6 | > 100 | 38.6 | 33.5 | 44.3 |  |  |  |  |  |  |  | 51
Cn1c(N/N=C/c2ccccc2)nc(-c2ccc([N+](=O)[O-])cc2)c(C#N)c1=O | > 100 | 48.3 | > 100 | > 100 | > 100 |  | > 100 | > 100 | > 100 |  |  |  |  |  |  | > 100
COC(OC)[C@@H]1OC[C@@H](O)[C@@H]1n1cnc2c(N)ncnc21 | > 100 |  | > 100 | > 100 | > 100 | > 100 | > 100 | > 100 | > 100 |  |  |  |  |  |  | > 100
O=C(NC(=S)NC(=O)c1cc(O)c(O)c(O)c1)c1cc(O)c(O)c(O)c1 | 40.2 |  | 44.1 | 70.4 | 60.3 |  | 61.3 | 73.9 |  |  |  |  |  |  |  | 
S=C(Nc1ccc2cn[nH]c2c1)Nc1ccc2cn[nH]c2c1 | > 100 |  | > 100 | > 100 | > 100 | > 100 | > 100 | > 100 | > 100 |  |  |  |  |  |  | > 100
C[C@H](C/C=C/C(C)(C)O)[C@H]1CC[C@@]2(C)[C@@H]3CC[C@H]4C(C)(C)[C@@H](O)CC[C@@]45C[C@@]35CC[C@]12C | 46.5 |  | 53.6 | 19.4 | 29.4 | 56 | 27.1 | 37.8 | 70.3 |  |  |  |  |  |  | 52.5
NNC(=O)c1cc(=O)[nH][nH]1 | > 100 |  | > 100 | > 100 |  | > 100 | > 100 |  | > 100 |  |  |  |  |  |  | > 100
O=C1Nc2ccccc2/C1=c1\[nH]c(=O)/c(=C\c2ccc(OCc3ccccc3)cn2)[nH]c1=O | > 100 | > 100 | 0.848 | > 100 | > 100 |  | 50.1 | > 100 | 75.9 |  |  |  |  |  |  | 14
N#C[C@H](c1nc2ccccc2s1)c1nc2ccccc2nc1Cl | > 100 | > 100 | 52 | > 100 |  | 21.4 |  | > 100 |  |  |  |  |  |  |  | > 100
COc1ccc2oc(=O)c(-c3csc(C)n3)cc2c1 | > 100 | > 100 | > 100 |  | > 100 | 29.2 | 64.7 | > 100 | > 100 |  |  |  |  |  |  | 55.6
O=C(OCC(Cl)(Cl)Cl)O[C@@H]1CCCC1(c1ccccc1)c1ccccc1 | > 100 |  | > 100 | > 100 | > 100 | > 100 | > 100 | > 100 | > 100 |  |  |  |  |  |  | > 100
CN(C)c1cccc(NC2=NCCO2)c1 | > 100 | 50.5 | > 100 | > 100 | > 100 |  | > 100 | > 100 | > 100 |  |  |  |  |  |  | > 100
